Measurements: paper PMC11358582, “Discovery of a potential bladder cancer inhibitor CHNQD-01281 by regulating EGFR and promoting infiltration of cytotoxic T cells” (Marine Life Science & Technology, 2024)

Legend:
[1] = tested on: BEL-7402 cells; assay: MTT cell proliferation assay; assay type: cell-based, human
Protocol: (§1) Human tumor cell lines Eca-109, BEL-7402, BxPC-3, HCT-116, HT-29, T24, HCT-8, SGC-7901, DLD-1, TE-1, BT-549, MGC-803 and human hepatocyte cell line L-02 were cultured in Roswell Park Memorial Institute (RPMI) 1640. HuH-7 and SW-480 were cultured in Dulbecco’s modified Eagle’s medium (DMEM). J82, HepG2, Hela, U87 were cultured in Minimum Essential Medium (MEM). Murine bladder cancer cell line, MB49, was cultured in DMEM. The above-mentioned culture medium was provided by GIBCO (Grand Island, USA), contained 10% fetal bovine serum (PAN, Germany), 10 mg/mL of streptomycin, and 10 kU/mL penicillin (Beyotime, China).
(§2) Cells were seeded in 96-well plates and incubated with indicated concentrations of CHNQD-01281 for indicated periods. Next, medium was discarded and MTT (5 mg/mL) was added to each well. The cells were incubated at 37 °C for another 4 h. After that, supernatant was discarded, and DMSO was added and incubated at 37 °C for 15 min. Finally, absorbance was measured at 570 nm (Molecular Devices, USA).
(§3) To investigate whether CHNQD-01281 had selective inhibitory effect on cancer cell lines, a variety of human tumor cell lines were assayed by MTT, such as bladder cancer cell lines (J82 and T24), colorectal cancer cell lines (HCT-116, HT-29, HCT-8, DLD-1 and SW-480), cervical cancer cell line (Hela), esophageal cancer cell lines (TE-1 and Eca-109), breast cancer cell line (BT-549), gastric carcinoma cell lines (MGC-803 and SGC-7901), glioma cell line (U87), pancreatic carcinoma cell line (BxPC-3) and hepatocellular carcinoma cell lines (Hep G2, BEL-7402 and HuH-7) (Fig. 2A).

[2] = tested on: BT-549 cells; assay: MTT cell proliferation assay; assay type: cell-based, human
Protocol: as §1, §2, §3

[3] = tested on: DLD-1 cells; assay: MTT cell proliferation assay; assay type: cell-based, human
Protocol: as §1, §2, §3

[4] = tested on: Eca-109 cells; assay: MTT cell proliferation assay; assay type: cell-based, human
Protocol: as §1, §2, §3

[5] = tested on: HT-29 cells; assay: MTT cell proliferation assay; assay type: cell-based, human
Protocol: as §1, §2, §3

[6] = tested on: Hela cells; assay: MTT cell proliferation assay; assay type: cell-based, human
Protocol: as §1, §2, §3

[7] = tested on: Hep G2 cells; assay: MTT cell proliferation assay; assay type: cell-based, human
Protocol: as §1, §2, §3

[8] = tested on: HuH-7 cells; assay: MTT cell proliferation assay; assay type: cell-based, human
Protocol: as §1, §2, §3

[9] = tested on: J82 cells; assay: MTT cell proliferation assay; assay type: cell-based, human
Protocol: as §1, §2, §3

[10] = tested on: SGC-7901 cells; assay: MTT cell proliferation assay; assay type: cell-based, human
Protocol: as §1, §2, §3

[11] = tested on: SW-480 cells; assay: MTT cell proliferation assay; assay type: cell-based, human
Protocol: as §1, §2, §3

[12] = tested on: T24 cells; assay: MTT cell proliferation assay; assay type: cell-based, human
Protocol: as §1, §2, §3

[13] = tested on: TE-1 cells; assay: MTT cell proliferation assay; assay type: cell-based, human
Protocol: as §1, §2, §3

[14] = tested on: U87 cells; assay: MTT cell proliferation assay; assay type: cell-based, human
Protocol: as §1, §2, §3

[15] = tested on: T24 xenograft; assay: T24 nude mice xenograft model; assay type: in vivo, BALB/c-nu mice; settings: for reduction of Ki67 expression level (IHC): tumor tissue
Protocol: Specific pathogen free (SPF)-grade C57BL/6 mice and BALB/c-nu mice were purchased from Jinan Pengyue Experimental Animal Center (license No. SCXK 20190003). The protocol was approved by the Research Review Committee of the Ocean University of China. All mice were housed in 12-h light and 12-h dark conditions in which the humidity was 50% ± 10% and the temperature was 22 ± 2 °C. All mice had free access to food and water. The human bladder cancer cell line T24 was injected subcutaneously into BALB/c-nu mice to construct a xenograft tumor model. The cell suspension of mouse bladder cancer cell line MB49 was injected into C57BL/6 mice subcutaneously to construct a syngeneic tumor model.
Fixed tissues were embedded in paraffin and then sectioned. The specimens were incubated with antibodies against Ki67, CD3, CD4, CD8 (Servicebio, China) and EGFR (ABclonal, China) at 4 °C overnight. The next day, the slides were washed with 1 × PBST three times for 5 min each and stained with the secondary antibodies and Hoechst 33342 dye (Beyotime, China) for 60 min for IF. For IHC staining, the sections were developed with a rabbit/mouse HRP kits (DAB) (Beyotime, China) according to the manufacturer’s instructions.
Therefore, xenograft and homologous tumor models were constructed to further evaluate the antitumor effect of CHNQD-01281 in vivo. The mouse bladder cancer xenograft model was established by the subcutaneous inoculation of the T24 cell line, then CHNQD-01281 was intraperitoneally administrated for two consecutive weeks (Fig. 5A).

Structure (SMILES): C[C@H]1CCC/C=C/[C@@H]2C[C@H](O)C[C@H]2[C@H](OC(=O)/C=C/c2cccnc2)/C=C/C(=O)O1 [CHNQD-01281, Brefeldin A 4-O-3-(pyridin-3-yl) acrylate]
- IC90 ([1]; Homo sapiens, BEL-7402, MTT): 820 nM
- IC50 ([1]; Homo sapiens, BEL-7402, MTT, 72 h): 260 nM
- SI (selectivity index) ([1]; L-02 versus BEL-7402): 4.46
- IC90 ([2]; Homo sapiens, BT-549, MTT): > 1000 nM
- IC50 ([2]; Homo sapiens, BT-549, MTT, 72 h): 640 nM
- SI (selectivity index) ([2]; L-02 versus BT-549): 1.81
- IC90 ([3]; Homo sapiens, DLD-1, MTT): 640 nM
- IC50 ([3]; Homo sapiens, DLD-1, MTT, 72 h): 340 nM
- SI (selectivity index) ([3]; L-02 versus DLD-1): 3.41
- IC90 ([4]; Homo sapiens, Eca-109, MTT): > 1000 nM
- IC50 ([4]; Homo sapiens, Eca-109, MTT, 72 h): 540 nM
- SI (selectivity index) ([4]; L-02 versus Eca-109): 2.15
- IC90 ([5]; Homo sapiens, HT-29, MTT): > 1000 nM
- IC50 ([5]; Homo sapiens, HT-29, MTT, 72 h): 370 nM
- SI (selectivity index) ([5]; L-02 versus HT-29): 3.14
- IC90 ([6]; Homo sapiens, Hela, MTT): 780 nM
- IC50 ([6]; Homo sapiens, Hela, MTT, 72 h): 190 nM
- SI (selectivity index) ([6]; L-02 versus Hela): 6.11
- IC90 ([7]; Homo sapiens, HepG2, Hep G2, MTT): > 1000 nM
- IC50 ([7]; Homo sapiens, HepG2, Hep G2, MTT, 72 h): 420 nM
- SI (selectivity index) ([7]; L-02 versus Hep G2): 2.76
- IC90 ([8]; Homo sapiens, HuH-7, MTT): > 1000 nM
- IC50 ([8]; Homo sapiens, HuH-7, MTT, 72 h): 510 nM
- SI (selectivity index) ([8]; L-02 versus HuH-7): 2.27
- inhibition at 1 µM ([9]; Homo sapiens, J82, 1 µmol/L (highest concentration), 24 h): < 50%
- IC90 ([9]; Homo sapiens, J82, MTT): 400 nM
- IC50 ([9]; Homo sapiens, J82, MTT, 72 h): 81 nM
- SI (selectivity index) ([9]; L-02 versus J82): 14.32
- IC90 ([10]; Homo sapiens, SGC-7901, MTT): 750 nM
- IC50 ([10]; Homo sapiens, SGC-7901, MTT, 72 h): 340 nM
- SI (selectivity index) ([10]; L-02 versus SGC-7901): 3.41
- IC90 ([11]; Homo sapiens, SW480, SW-480, MTT): > 1000 nM
- IC50 ([11]; Homo sapiens, SW480, SW-480, MTT, 72 h): 730 nM
- SI (selectivity index) ([11]; L-02 versus SW-480): 1.59
- inhibition at 0.125 µM ([12]; Homo sapiens, T-24, T24, 0.125 µmol/L, 120 h, read-out: inhibition of growth): ~100%
- inhibition at 1 µM ([12]; Homo sapiens, T-24, T24, 1 µmol/L (highest concentration), 24 h): < 50%
- IC90 ([12]; Homo sapiens, T-24, T24, MTT): 300 nM
- IC50 ([12]; Homo sapiens, T-24, T24, MTT, 72 h): 79 nM
- SI (selectivity index) ([12]; L-02 versus T24): 14.68
- IC90 ([13]; Homo sapiens, TE-1, MTT): > 1000 nM
- IC50 ([13]; Homo sapiens, TE-1, MTT, 72 h): 620 nM
- SI (selectivity index) ([13]; L-02 versus TE-1): 1.87
- IC90 ([14]; Homo sapiens, U-87 MG, U87, MTT): > 1000 nM
- IC50 ([14]; Homo sapiens, U-87 MG, U87, MTT, 72 h): 650 nM
- SI (selectivity index) ([14]; L-02 versus U87): 1.78
- reduction of Ki67 expression level (IHC) ([15]; 15 mg/kg, versus control): 38.32%
- expression of EGFR in tumor (IHC) ([15]; 30 mg/kg): significantly down-regulated expression of EGFR
- tumor growth inhibition rate (TGI %) ([15]; 30 mg/kg, i.p., QD, two weeks, tumor volume): 52.63%
- reduction of Ki67 expression level (IHC) ([15]; 30 mg/kg, versus control): 66.47%
- reduction of tumor weight ([15]; 30 mg/kg, versus control): 48.57%
